This note sets out measurements from PubChem BioAssay (NCI).

As a reminder, the TGI is the concentration giving total growth inhibition. Read a high TGI as lower sensitivity of the cells.

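Growth conditions: 96-well plates. Treatment: test compound, 48 hours, 5 concentrations. Analysis: linear interpolation between bracketing concentrations; unreached endpoints set to highest concentration. TGI is the concentration that stops growth completely.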

Some test systems named below: NCI-H23 lung; 786-0 renal; UACC-62 melanoma; OVCAR-8 ovarian; A498 renal; SK-MEL-2 melanoma; LOX IMVI melanoma; M14 melanoma; BT-549 breast; U251 CNS.
Test in all cases: DTP human tumour cell line panel, 48 h

On to `CC(=O)NC1=C(C)C(=O)c2c(nc3n2CC[C@H]3OC(C)=O)C1=O`, for which the TGI with NCI-H23 lung was determined as 8.41 µM; in the test on 786-0 renal it was 4.32 µM; in the test on UACC-62 melanoma it was 3.77 µM; in the test with OVCAR-8 ovarian it was 6.75 µM; with A498 renal, 30.5 µM; in the test on SK-MEL-2 melanoma, 3.52 µM. Besides, the TGI with LOX IMVI melanoma came to 2.11 µM; in the test on M14 melanoma it was 4.01 µM; with BT-549 breast, 3.01 µM; in the test with U251 CNS, 3.22 µM.
As to `Cc1cc([N+](=O)[O-])ccc1N=NC(=O)NNc1ccc([N+](=O)[O-])cc1C`, the TGI stood at 41.8 µM in the test on NCI-H23 lung; 30.6 µM in the test on 786-0 renal; 26.3 µM in the test on UACC-62 melanoma; 30 µM with OVCAR-8 ovarian; 27.2 µM with A498 renal; 43.6 µM in the test with SK-MEL-2 melanoma. Further, the concentration for total growth inhibition (TGI) came to 29.8 µM in the test with LOX IMVI melanoma, 28.3 µM in the test on M14 melanoma, 28.3 µM with BT-549 breast and 32.9 µM in the test on U251 CNS.
Turning to `C[C@H](CCC1=NCCN1)[C@H]1CC[C@H]2[C@@H]3CC[C@@H]4C[C@H](O)CC[C@]4(C)[C@H]3C[C@H](O)[C@]12C`, the TGI worked out at 27 µM in the test with NCI-H23 lung; 33 µM in the test with 786-0 renal; 26.3 µM in the test on UACC-62 melanoma; 28.8 µM in the test on OVCAR-8 ovarian; 65.1 µM in the test with A498 renal; 26.7 µM in the test on SK-MEL-2 melanoma. Further, the TGI was 29.3 µM with LOX IMVI melanoma, 35.6 µM in the test on M14 melanoma, 33.1 µM with BT-549 breast and 23.7 µM with U251 CNS.
Turning to `Nc1nc2cc(CNc3ccc(C(=O)NC(CCC(=O)O)C(=O)O)cc3)ccc2nc1-c1ccccc1` (stereo not given), the concentration for total growth inhibition (TGI) with NCI-H23 lung, with 786-0 renal, in the test on UACC-62 melanoma, with OVCAR-8 ovarian, in the test on A498 renal and in the test with SK-MEL-2 melanoma was above 10 µM throughout. Also, the TGI with LOX IMVI melanoma, in the test with M14 melanoma, in the test on BT-549 breast and with U251 CNS was above 10 µM in each case.
Consider `O=C1O[C@]2(c3ccccc3)C(c3ccccc3)=C[C@]2(C(=O)c2ccccc2)C1=O`, for which the TGI with NCI-H23 lung is above 100 µM; in the test with 786-0 renal, 85.7 µM; with UACC-62 melanoma it was above 100 µM; in the test with OVCAR-8 ovarian it was above 100 µM; with A498 renal, above 100 µM; in the test with SK-MEL-2 melanoma, 74.6 µM. The total growth inhibition concentration (TGI) with LOX IMVI melanoma was 79 µM; in the test with M14 melanoma, above 100 µM; with BT-549 breast, above 100 µM; with U251 CNS, 93.5 µM.
Consider `O=c1[nH]c2ccccc2c2oc(-c3ccccc3)nc12`, for which the TGI is above 100 µM with NCI-H23 lung; 56.1 µM in the test on 786-0 renal; above 100 µM in the test on UACC-62 melanoma; 59.1 µM in the test with OVCAR-8 ovarian; 59.5 µM in the test on A498 renal; above 100 µM with SK-MEL-2 melanoma. For the same compound, the TGI was 50.6 µM in the test on LOX IMVI melanoma, above 100 µM with M14 melanoma, above 100 µM in the test with BT-549 breast and 60.8 µM in the test on U251 CNS.
For `COc1cc(C2S/C(=C/c3ccccc3)C(=O)N2c2cccc([N+](=O)[O-])c2)cc(OC)c1OC` (stereo not given), the TGI was above 100 µM in the test on NCI-H23 lung; above 100 µM with 786-0 renal; above 100 µM with UACC-62 melanoma; above 100 µM in the test on OVCAR-8 ovarian; above 100 µM in the test on A498 renal; 67.9 µM in the test with SK-MEL-2 melanoma. For the same compound, the TGI with LOX IMVI melanoma, with M14 melanoma, in the test on BT-549 breast and with U251 CNS was above 100 µM throughout.
As for `O=[N+]([O-])c1ccc(Cl)cc1C=NC12CC3CC(CC(C3)C1)C2`, the TGI with NCI-H23 lung is 98.1 µM; in the test with 786-0 renal, above 95.2 µM; in the test with UACC-62 melanoma it was above 100 µM; in the test on OVCAR-8 ovarian, above 100 µM; with A498 renal, above 100 µM; in the test on SK-MEL-2 melanoma it was above 100 µM. The TGI was above 70.3 µM in the test on LOX IMVI melanoma, above 100 µM with M14 melanoma, above 100 µM with BT-549 breast and above 100 µM in the test with U251 CNS.
Take `Cc1nnc2sc(N/N=C/c3ccccc3)nn12`: the TGI in the test on NCI-H23 lung, in the test with 786-0 renal, in the test with UACC-62 melanoma, with OVCAR-8 ovarian, in the test on A498 renal and in the test with SK-MEL-2 melanoma was above 100 µM throughout. In addition, the TGI with LOX IMVI melanoma, in the test on M14 melanoma, in the test on BT-549 breast and in the test with U251 CNS was above 100 µM each time.
As to `CC(=O)NC1=CC(=O)c2cc(C)cc(O)c2C1=O`, the TGI in the test on NCI-H23 lung is 5.21 µM; in the test with 786-0 renal, 27.3 µM; in the test on UACC-62 melanoma it was 4.71 µM; with OVCAR-8 ovarian, 18.7 µM; with A498 renal it was 27.5 µM; in the test on SK-MEL-2 melanoma it was 17.9 µM. For the same compound, the TGI in the test on LOX IMVI melanoma came to 7.74 µM; in the test on M14 melanoma, 3.53 µM; in the test with BT-549 breast, 18.9 µM; in the test with U251 CNS, 36.4 µM.
For the compound `Cc1cccc2c1C/C(=C\c1cccc(C)c1C(=O)O)C2=O`, the TGI with NCI-H23 lung, with 786-0 renal, in the test with UACC-62 melanoma, in the test with OVCAR-8 ovarian, in the test on A498 renal and in the test with SK-MEL-2 melanoma was above 100 µM throughout. Moreover, the TGI in the test on LOX IMVI melanoma, in the test on M14 melanoma, in the test on BT-549 breast and in the test on U251 CNS was above 100 µM in each case.
In the case of `O=C(OCc1ccccc1)N1c2cc([N+](=O)[O-])ccc2C(=O)N2CCC[C@H]2C1O` (stereo not given in full), the TGI in the test on NCI-H23 lung, in the test on 786-0 renal, with UACC-62 melanoma, in the test with OVCAR-8 ovarian, in the test with A498 renal and in the test with SK-MEL-2 melanoma was above 100 µM each time. For the same compound, the TGI in the test on LOX IMVI melanoma, with M14 melanoma, with BT-549 breast and in the test with U251 CNS was above 100 µM in each case.
In the case of `Cc1n(CC(=O)c2ccccc2)nc2sc(N)n[n+]12`, the TGI with NCI-H23 lung is above 100 µM; with 786-0 renal, above 100 µM; in the test with UACC-62 melanoma it was 37.4 µM; in the test on OVCAR-8 ovarian, above 100 µM; in the test on A498 renal, above 100 µM; in the test on SK-MEL-2 melanoma, above 100 µM. Further, the TGI in the test with LOX IMVI melanoma, in the test with M14 melanoma, with BT-549 breast and with U251 CNS was above 100 µM throughout.
On to `CCC(C)C1(O)OC2CC3(C)OC(=CC3=O)/C(C)=C\C3OC(=O)C1(C)C32` (stereo not given), for which the TGI amounted to 24.7 µM with NCI-H23 lung; 81.8 µM in the test on 786-0 renal; 35.3 µM in the test on UACC-62 melanoma; 59.9 µM with OVCAR-8 ovarian; 81.9 µM in the test on A498 renal; 96.5 µM in the test on SK-MEL-2 melanoma. The TGI is 49.4 µM in the test on LOX IMVI melanoma, above 100 µM with M14 melanoma, 12.8 µM in the test with BT-549 breast and above 100 µM in the test with U251 CNS.
Turning to `CC(C)C1=CC23CCC4C(C)(C(=O)O)CCCC4(C)C2CC1C(C(=O)O)C3C(=O)O` (stereo not given), the TGI in the test with NCI-H23 lung, in the test with 786-0 renal, with UACC-62 melanoma, with OVCAR-8 ovarian, with A498 renal and in the test on SK-MEL-2 melanoma was above 100 µM in each case. Also, the TGI with LOX IMVI melanoma, in the test on M14 melanoma, in the test with BT-549 breast and in the test on U251 CNS was above 100 µM throughout.
In the case of `COc1cc(/C=C/C(=O)OC[C@H](Br)[C@H](OC(C)=O)c2ccc3c(c2)OCO3)cc(OC)c1OC`, the TGI with NCI-H23 lung, in the test with 786-0 renal, in the test on UACC-62 melanoma, in the test on OVCAR-8 ovarian, in the test on A498 renal and in the test on SK-MEL-2 melanoma was above 100 µM in each case. In addition, the TGI in the test with LOX IMVI melanoma, in the test on M14 melanoma, in the test with BT-549 breast and with U251 CNS was above 100 µM throughout.
As to `CC(C)C(C/C=C1\CC(CO)(COC(=O)CC(C(C)C)C(C)C)OC1=O)C(C)C` (stereo not given), the TGI in the test on NCI-H23 lung turned out to be 29 µM; in the test on 786-0 renal it was 21.1 µM; in the test on UACC-62 melanoma it was 29 µM; in the test with OVCAR-8 ovarian it was 33 µM; with A498 renal, 25.5 µM; with SK-MEL-2 melanoma it was 38.2 µM. Moreover, the TGI in the test on LOX IMVI melanoma is 27.3 µM; with M14 melanoma, 24.6 µM; with BT-549 breast, 27.8 µM; in the test on U251 CNS, 29.4 µM.
